In doi:10.1101/2024.08.29.610163v8, “Structural Snapshots of B12-Dependent Methionine Synthase’s Catalytic Conformations” (biorxiv, 2026):
Changes are numbered by the printed parent chain.

Tests used:
[1] = target: T1, tMS^HcyFolCapCob (Thermus thermophilus, UniProt Q5SKM5, F110A/E123A/E124A/Y296A/D651A/P652A/G653A); assay: X-ray crystal structure, […] Å; assay type: binding; settings: pre-Hcy-on, prCbl holoenzyme, mutant 1
T1 construct: gene TTHA0618; Hcy-Fol-Cap-Cob tetradomain, lacks Act domain; N-terminal His6 tag cut with TEV; about 95 kDa monomer; E. coli BL21star(DE3)
T1 sequence (Q5SKM5 1-877 F110A/E123A/E124A/Y296A/D651A/P652A/G653A): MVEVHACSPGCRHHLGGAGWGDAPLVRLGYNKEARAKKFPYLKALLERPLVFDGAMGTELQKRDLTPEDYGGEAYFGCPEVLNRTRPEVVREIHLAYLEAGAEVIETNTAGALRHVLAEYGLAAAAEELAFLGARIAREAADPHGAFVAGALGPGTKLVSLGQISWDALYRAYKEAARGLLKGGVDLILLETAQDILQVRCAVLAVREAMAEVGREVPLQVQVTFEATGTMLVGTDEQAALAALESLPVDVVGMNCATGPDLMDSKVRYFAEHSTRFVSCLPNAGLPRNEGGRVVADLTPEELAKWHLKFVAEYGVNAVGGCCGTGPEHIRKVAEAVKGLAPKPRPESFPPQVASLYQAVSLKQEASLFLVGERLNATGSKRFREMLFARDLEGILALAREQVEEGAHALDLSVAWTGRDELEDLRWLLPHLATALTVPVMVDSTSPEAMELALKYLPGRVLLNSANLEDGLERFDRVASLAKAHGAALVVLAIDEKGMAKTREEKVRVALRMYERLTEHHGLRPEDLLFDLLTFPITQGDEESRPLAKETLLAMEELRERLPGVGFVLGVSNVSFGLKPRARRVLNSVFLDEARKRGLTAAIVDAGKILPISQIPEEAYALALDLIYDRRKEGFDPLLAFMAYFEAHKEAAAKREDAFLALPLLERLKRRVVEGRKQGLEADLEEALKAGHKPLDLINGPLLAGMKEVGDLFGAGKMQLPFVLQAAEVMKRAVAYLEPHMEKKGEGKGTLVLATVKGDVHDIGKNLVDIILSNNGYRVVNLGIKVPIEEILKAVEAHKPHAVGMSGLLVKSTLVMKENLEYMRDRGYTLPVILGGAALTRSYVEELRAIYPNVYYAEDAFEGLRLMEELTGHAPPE

[2] = target: T2, tMS^HcyFol (Thermus thermophilus, UniProt Q5SKM5); assay: UV-Vis methylcobalamin consumption; assay type: biochemical; settings: 100 µM homocysteine; 23 µM CapCob-bound MeCbl or 20 µM free MeCbl; 2 µM enzyme; pH 7.4, 0.5 mM TCEP, 50 °C
T2 construct: gene TTHA0618; Hcy-Fol didomain; N-terminal His6-TEV tag, no cut described; E. coli BL21star(DE3)
T2 sequence (Q5SKM5 1-640 limits assumed): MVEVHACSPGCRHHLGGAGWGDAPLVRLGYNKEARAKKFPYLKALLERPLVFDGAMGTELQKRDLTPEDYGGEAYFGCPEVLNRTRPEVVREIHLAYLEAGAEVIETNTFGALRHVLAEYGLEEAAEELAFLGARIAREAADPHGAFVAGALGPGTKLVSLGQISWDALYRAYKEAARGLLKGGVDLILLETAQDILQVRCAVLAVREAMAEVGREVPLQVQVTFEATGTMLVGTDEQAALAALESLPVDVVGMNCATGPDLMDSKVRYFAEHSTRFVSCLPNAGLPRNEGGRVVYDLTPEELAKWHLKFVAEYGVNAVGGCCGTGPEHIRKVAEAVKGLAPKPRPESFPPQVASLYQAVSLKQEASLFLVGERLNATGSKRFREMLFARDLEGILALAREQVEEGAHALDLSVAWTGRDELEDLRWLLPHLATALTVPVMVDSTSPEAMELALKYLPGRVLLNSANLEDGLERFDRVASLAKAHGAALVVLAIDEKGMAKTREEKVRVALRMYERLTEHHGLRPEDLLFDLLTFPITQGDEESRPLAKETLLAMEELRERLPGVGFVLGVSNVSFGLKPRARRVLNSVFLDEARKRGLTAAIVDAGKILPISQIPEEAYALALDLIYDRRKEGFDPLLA

[3] = target: T3, tMS^ΔN35Hcy (tMS^Hcy) (Thermus thermophilus, UniProt Q5SKM5); assay: UV-Vis methylcobalamin consumption; assay type: biochemical; settings: 100 µM homocysteine; 20 µM free MeCbl; 2 µM enzyme; pH 7.4, 0.5 mM TCEP, 50 °C
T3 construct: gene TTHA0618; isolated Hcy domain lacking N-terminal 35 residues; N-terminal His6-TEV tag, no cut described; E. coli BL21star(DE3)
T3 sequence (Q5SKM5 36-340 limits assumed): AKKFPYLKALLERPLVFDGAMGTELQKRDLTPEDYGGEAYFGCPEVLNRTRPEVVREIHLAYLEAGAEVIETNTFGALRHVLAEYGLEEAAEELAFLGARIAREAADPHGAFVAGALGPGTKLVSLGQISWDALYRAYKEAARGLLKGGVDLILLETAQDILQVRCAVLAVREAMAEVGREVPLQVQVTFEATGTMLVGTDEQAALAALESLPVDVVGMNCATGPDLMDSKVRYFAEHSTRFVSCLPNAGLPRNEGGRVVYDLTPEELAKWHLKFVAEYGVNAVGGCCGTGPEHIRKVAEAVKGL

[4] = target: T4, tMS^HcyFolCapCob (Thermus thermophilus, UniProt Q5SKM5, F110A/E123A/E124A/R268A/D651A/P652A/G653A/D759A/N774H/R826A); assay: X-ray crystal structure, […] Å; assay type: binding; settings: Hcy-on; aeCbl holoenzyme; co-purified; Fol domain; mutant 2
T4 construct: gene TTHA0618; Hcy-Fol-Cap-Cob tetradomain, lacks Act domain; N-terminal His6 tag cut with TEV; about 95 kDa monomer; E. coli BL21star(DE3)
T4 sequence (Q5SKM5 1-877 F110A/E123A/E124A/R268A/D651A/P652A/G653A/D759A/N774H/R826A): T1 sequence (Q5SKM5 1-877 F110A/E123A/E124A/Y296A/D651A/P652A/G653A) with R268A, A296Y, D759A, N774H, R826A

| Structure (SMILES) | X-ray crystal structure, 2.45 Å ([1]; Hcy domain site) | UV-Vis methylcobalamin consumption [2] | UV-Vis methylcobalamin consumption [3] | X-ray crystal structure, 2.45 Å ([1]; co-purified, Fol domain) | X-ray crystal structure, 2.38 Å [4] |
| --- | --- | --- | --- | --- | --- |
| N[C@@H](CCS)C(=O)O [homocysteine] | HCY was found bound in the pre-Hcy-on structure (9CBP) | consumption of methylcobalamin when bound to tMS^CapCob was observed with tMS^HcyFol | Consumption of exogenous methylcobalamin was detected in the presence of both tMS ^HcyFol and tMS^Hcy | – | – |
| Nc1nc2c(c(=O)[nH]1)N[C@@H](CNc1ccc(C(=O)N[C@@H](CCC(=O)O)C(=O)O)cc1)CN2 [tetrahydrofolate] | – | – | – | tetradomain did yield a folate-bound structure, modelled as tetrahydrofolate (Ligand ID THG) | pre-Hcy-on (Cap-on, 9CBP) and Hcy-on (9CBR) states copurified with the folate demethylation byproduct |
